# Laboratory results reported in publication PMC7801313, “Effect of lurbinectedin on the QTc interval in patients with advanced solid tumors: an exposure–response analysis” (Cancer Chemotherapy and Pharmacology, 2020).
# Values joined by “and” are separate entries in the source; they are usually repeats but may differ in a detail not shown here. Identical values can stand only once. Like-named read-outs stand apart in the source and are kept apart here.
# Columns and labels:
# [1] = system: patients with advanced solid tumors; test: QT evaluation study, by time point ECG analysis; assay type: in vivo, human
# Experimental: This was a QT evaluation study (EudraCT No. 2015-000206-18; ClinicalTrials.gov: NCT02451007) performed at a subset of sites participating in a multicenter, open-label, exploratory, phase II basket clinical trial (EudraCT No: 2014-003773-42; ClinicaTrials.gov: NCT02454972) conducted in patients with selected advanced solid tumors. The schedule used in this QT evaluation study was that evaluated in the basket trial: lurbinectedin 3.2 mg/m^2 given as a 1-h i.v. infusion q3wk.
# A screening ECG was collected between day -10 and day -2 before the first lurbinectedin infusion (day 1 of cycle 1) and transmitted to the central ECG laboratory to confirm the patient’s eligibility.
# On day 1 of cycle 1, two baseline triplicate ECGs (three 10-s digital ECGs in close succession) were collected: one before administration of prophylactic medication or pre-dose 1, and the other after antiemetic prophylactic medication (palonosetron 0.25 mg i.v.) and before the start of the lurbinectedin infusion or pre-dose 2 (also on cycle 2).
# In cycle 1 and cycle 2, the following triplicate ECGs were collected 5–10 min before their time-matched PK time points: 5 min before end of the lurbinectedin infusion (EOI), 30 min, 1, 3, 24, 72 (only on cycle 1), and 168 h after EOI.
# A 12-lead automated digital ECG recorder [Mortara Instrument (Milwaukee, WI, USA) ELI-150 ECG 12-lead digital recorder] was provided by a third-party central ECG laboratory (eResearchTechnology, Inc., Philadelphia, PA, USA). Analysis and reporting of ECG data were performed by a limited number of skilled readers who were blinded to treatment time point. ECG review of a particular patient was performed by a single reader. Interval duration measurements were collected using computer-assisted caliper placements on three consecutive beats. A cardiologist then verified the interval durations and performed the morphology analysis, noting any T-U wave complex compatible with an effect on cardiac repolarization. The ECG analysis was conducted in Lead II or in Lead V5 if Lead II was not analyzable. If Lead V5 was not analyzable, then Lead V2 was used, and followed by the most appropriate lead if necessary. The mean of triplicate ECG measures at each time point for each patient was used for analyses.
# Fridericia’s formula [6] is currently considered the most accurate method for correcting the effect of HR on QT interval [7], and was used as the main method for HR correction for QT (QTcF). Nevertheless, graphical inspection of QTcF and QT corrected by Bazett’s formula (QTcB) versus RR interval plots and statistical comparison of resulting squared linear regression slopes (R^2) was performed.
# The primary endpoint was the change in QTc corrected by the Fridericia’s formula (ΔQTcF) between each scheduled post-baseline ECG time point and baseline at cycle 1. A patient was considered evaluable for the primary endpoint if he/she had baseline and one or more post-baseline ECG assessments.
# Secondary endpoints were the ΔQTcF/lurbinectedin plasma concentration relationship, and change in other ECG parameters (i.e., HR, QRS, and PR).
# The primary comparison was ΔQTcF at each ECG time point. A non-inferiority criterion of 20 ms was used to establish the absence of post-baseline QTc prolongation when compared to baseline. An analysis of variance model with mixed effects was fitted, with ΔQTc data as the dependent variable and ECG time point as the fixed effects, and patient as random effect.
# Using the estimated least square means (LSM) and intra-patient standard deviation (Std) obtained from this model, a two-sided 90% confidence interval (CI) was calculated for each LSM ΔQTc. Non-inferiority was to be concluded if the upper bound (UB) of the one-sided 95% CI fell below 20 ms at each ECG time point.
# [2] = system: patients with advanced solid tumors; test: cardiac adverse events in the QT evaluation study; assay type: in vivo, human
# Experimental: Cardiac adverse events (AEs) observed in the period of this QT evaluation study were evaluated and graded according to the National Cancer Institute Common Terminology Criteria for Adverse Events (NCI-CTCAE), v.4 and coded using the Medical Dictionary for Regulatory Activities (MedDRA) v.16.0. Laboratory results of particular relevance (i.e., changes in albumin, calcium, potassium, or magnesium) were graded according to the NCI-CTCAE v.4.
# [3] = system: patients; test: clinical toxicity of lurbinectedin as a single agent; assay type: in vivo, human; conditions: to date
# [4] = system: cytochrome P450 (CYP) 3A; set-up: method as in data on file; conditions: in vitro studies; ref data on file; cited from earlier work
# [5] = system: hERG; set-up: method as in data on file; conditions: ref data on file; cited from earlier work
# [6] = system: cynomolgus monkeys; set-up: method as in data on file; conditions: single i.v. bolus at maximum tolerated dose, ref data on file; cited from earlier work
# [7] = cited from earlier work
# [8] = Cycle 1 Day 1, 30 min after end of infusion
# [9] = Cycle 1 Day 1, 1 h after end of infusion
# [10] = Cycle 1 Day 1, 3 h after end of infusion
# [11] = Cycle 1 Day 2, 24 h after end of infusion
# [12] = Cycle 1 Day 4, 72 h after end of infusion
# [13] = Cycle 1 Day 8, 168 h after end of infusion
# [14] = Cycle 2 Day 1, 5 min before end of infusion
# [15] = Cycle 2 Day 1, 5 min before start of infusion
# [16] = Cycle 2 Day 1, 30 min after end of infusion
# [17] = Cycle 2 Day 1, 1 h after end of infusion
# [18] = Cycle 2 Day 8, 168 h after end of infusion
# [19] = all time points other than 3 h after end of cycle 2 infusion
structure (smiles),measurement,setting,value
"COc1ccc2[nH]c3c(c2c1)CCN[C@]31CS[C@@H]2c3c(OC(C)=O)c(C)c4c(c3[C@H](COC1=O)N1[C@@H]2[C@H]2c3c(cc(C)c(OC)c3O)C[C@@H]([C@@H]1O)N2C)OCO4 [lurbinectedin, Lurbinectedin]",effect on cardiac repolarization,[1]; 3.2 mg/m^2 1-h i.v. q3wk,not associated with a clinically relevant effect on cardiac repolarization
same,values above reference limits QTcF > 480 ms and ΔQTcF > 60 ms,[1]; 39 evaluable patients,No single value was above the reference limit values of concern
same,"ΔQTcF, mean (Stdv)","[1]; Cycle 1, 0.92 h after start of infusion",3.33 (8.46) ms
same,"ΔQTcF, mean (Stdv)","[1]; Cycle 1, 1.5 h after start of infusion",1.76 (8.25) ms
same,"ΔQTcF, mean (Stdv)","[1]; Cycle 1, 2 h after start of infusion",1.84 (10.88) ms
same,highest mean change from baseline in HR (± Std),"[1]; Cycle 1, 3 h after end of infusion",16.7 (± 11.0) bpm and 16.7 bpm
same,"ΔQTcF, mean (Stdv)","[1]; Cycle 1, 4 h after start of infusion",1.33 (10.39) ms
same,ΔQTcF UB90%CI,"[1]; Cycle 1 Day 1, 5 min before end of infusion",5.51 ms
same,ΔQTcF LSmean,"[1]; Cycle 1 Day 1, 5 min before end of infusion, 3.2 mg/m^2 1-h i.v.",3.32 ms
same,ΔQTcF LSmean,[1]; [8],1.76 ms
same,ΔQTcF UB90%CI,[1]; [8],3.93 ms
same,ΔQTcF LSmean,[1]; [9],1.84 ms
same,ΔQTcF UB90%CI,[1]; [9],4.69 ms
same,ΔQTcF LSmean,[1]; [10],1.32 ms
same,ΔQTcF UB90%CI,[1]; [10],4.05 ms
same,ΔQTcF LSmean,[1]; [11],-8.24 ms
same,ΔQTcF UB90%CI,[1]; [11],-5.26 ms
same,ΔQTcF LSmean,[1]; [12],-12.38 ms
same,ΔQTcF UB90%CI,[1]; [12],-9.39 ms
same,ΔQTcF LSmean,[1]; [13],-5.2 ms
same,ΔQTcF UB90%CI,[1]; [13],-2.41 ms
same,"ΔQTcF, mean (Stdv)","[1]; Cycle 2, 0.92 h after start of infusion",1.54 ms and 1.54 (12.36) ms
same,"ΔQTcF, mean (Stdv)","[1]; Cycle 2, 1.5 h after start of infusion",1.99 (12.06) ms
same,"ΔQTcF, mean (Stdv)","[1]; Cycle 2, 2 h after start of infusion",1.92 (13.65) ms
same,"ΔQTcF, mean (Stdv)","[1]; Cycle 2, 4 h after start of infusion (largest mean)",4.69 ms and 4.69 (15.28) ms
same,ΔQTcF LSmean,[1]; [14],2.25 ms
same,ΔQTcF UB90%CI,[1]; [14],5.68 ms
same,ΔQTcF LSmean,[1]; [15],-0.46 ms
same,ΔQTcF UB90%CI,[1]; [15],2.35 ms
same,ΔQTcF LSmean,[1]; [16],2.32 ms
same,ΔQTcF UB90%CI,[1]; [16],5.66 ms
same,ΔQTcF LSmean,[1]; [17],2.73 ms
same,ΔQTcF UB90%CI,[1]; [17],6.54 ms
same,ΔQTcF UB90%CI,"[1]; Cycle 2 Day 1, 3 h after end of infusion (largest UB)",9.6 ms and 9.60 ms
same,ΔQTcF LSmean,"[1]; Cycle 2 Day 1, 3 h after end of infusion (maximum)",5.39 ms
same,ΔQTcF LSmean,[1]; [18],-4.22 ms
same,ΔQTcF UB90%CI,[1]; [18],-1.08 ms
same,variation between lowest and largest mean change from baseline of PR interval,[1]; all time points and cycles,7.8 ms
same,variation between lowest and largest mean change from baseline of QRS duration,[1]; all time points and cycles,2.5 ms
same,LSM ΔQTcF at other time points,[1]; [19],≤ 3.3 ms
same,UB of the 90% CI of ΔQTcF at other time points,[1]; [19],< 6.6 ms
same,Umax (time when the largest mean ΔQTcF is reached),[1]; cycle 1,0.92 h
same,patients with ΔHR > 25%,[1]; cycle 1,44%
same,difference between Umax and Tmax,[1]; cycle 2,3.08 h
same,patients with ΔHR > 25%,[1]; cycle 2,49%
same,highest mean change from baseline in HR (± Std),"[1]; cycle 2, 3 h after end of infusion",17.5 (± 11.7) bpm and 17.5 bpm
same,effects on atrioventricular conduction or depolarization (mean changes in PR and QRS intervals),[1]; in vivo,No significant effects
same,cardiac safety findings,[2]; QT evaluation study period,No relevant cardiac safety findings
same,adverse events suggestive of proarrhythmic potential,[2]; in vivo,No adverse events suggestive of proarrythmic potential
same,cardiac toxicity concerns,[3],no cardiac toxicity concerns
same,role of metabolism by CYP3A in clearance,[4],major clearance mechanism
same,IC50,[5],8.8 µM
same,IC50 hERG,[5],6.9 µg/mL
same,cardiovascular changes,[6],mild decreases in blood pressure and increased heart rate
same,"effects on lead II ECG variables (PR, QT, QTcF, QTcV, QRS), ECG gross morphology, cardiac rhythm",[6],No effects were observed
same,population estimate for total plasma clearance,"[7]; 1-h i.v. infusion, cancer patients",11.2 L/h
same,extraction ratio,[7],0.19
same,inter-individual variability of all PK parameters,[7],20.9 to 51.2%
same,population estimate of apparent volume at steady state,[7],438 L and 438.4 L
same,reduction of clearance,[7]; co-administration of CYP3A inhibitors,30%
same,blood CL,[7]; corresponding to plasma clearance,~ 17 L/h
same,reduction of clearance,[7]; high C-reactive protein,20%
same,reduction of clearance,[7]; high α-1-acid glycoprotein,28%
same,reduction of clearance,[7]; low albumin,20%
